Key:
Rice = assay: Transplanted rice safety evaluation and weed control effect evaluation in rice field; type: in vivo, rice (japonica rice/Indica rice); settings: Table 7, dose 125 g a.i./ha, 21 days after treatment
Protocol: (§1) Transplanted rice safety evaluation and weed control effect evaluation in rice field:
In addition, the rice field soil that loaded into the 1/1,000,000 ha pot was leveled to keep water storage at 3-4 cm depth. The 3 leaf stage rice (japonica rice/Indica rice) was transplanted at 3 cm of transplanting depth the next day. The compound of the present invention was treated by the same way after 5 days of transplantation.
(§2) The fertility condition of echinochloa crusgali, scirpus juncoides, Bidens tripartita, Leptochloa chinensis, Sagittaria trifolia and Monochoria vaginalis 14 days after the treatment of the compound of the invention and the fertility condition of rice 21 days after the treatment of the compound of the invention respectively with the naked eye. Evaluate the weed control effect with 0-5 activity standard level. Many compounds show excellent activity and selectivity.

Scirpus juncoides = assay: as above; type: in vivo; settings: Table 7, dose 125 g a.i./ha, 14 days after treatment
Source text: as §1
(§3) Rice field soil was loaded into a 1/1,000,000 ha pot. The seeds of echinochloa crusgali, scirpus juncoides, Bidens tripartita, Sagittaria trifolia, Monochoria vaginalis and Leptochloa chinensis were sowed and gently covered with soil, then left to stand still in greenhouse in the state of 0.5-1 cm of water storage. The tuber of Sagittaria trifolia was planted in the next day or 2 days later. It was kept at 3-4 cm of water storage thereafter. The weeds were treated by dripping the WP or SC water diluents prepared according to the common preparation method of the compounds of the present invention with pipette homogeneously to achieve specified effective amount when echinochloa crusgali, scirpus juncoides, Bidens tripartita, Monochoria vaginalis and Leptochloa chinensis reached 0.5 leaf stage and Sagittaria trifolia reached the time point of primary leaf stage.
as §2

Monochoria vaginalis = assay: as above; type: in vivo; settings: Table 7, dose 125 g a.i./ha, 14 days after treatment
Source text: as §1, §3, §2

Echinochloa crusgali = assay: as above; type: in vivo; settings: Table 7, dose 125 g a.i./ha, 14 days after treatment
Source text: as §1, §3, §2

[1] = test system: Indica rice (Huanghuazhan); assay: Safety test of control experiments on rice; type: in vivo; settings: Dose 250 g a.i./ha
Source text: (§4) The activity level criteria for plant damage (i.e., growth control rate) are as follows: Comparative Experiments: [table]

[2] = test system: Japonica rice (Huaidao No. 5); assay: Safety test of control experiments on rice; type: in vivo; settings: Dose 250 g a.i./ha
Source text: as §4

Echinochloa crusgalli = assay: Weeding effect in post-emergence stage (greenhouse pot spray); type: in vivo
Procedure, shortened: (§5)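 Greenhouse post-emergence test: compounds were sprayed at 500, 250, 125, 60 and 15 g a.i./ha onto plants 2 weeks after sowing, and fresh weight control rates were averaged from three replicates 3 weeks later.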

Abutilon theophrasti = assay: as above; type: in vivo; settings: for Abutilon theophrasti (activity level): Table 3, dose 60 g a.i./ha
Procedure, shortened: as §5

Digitaria sanguinalis = assay: as above; type: in vivo; settings: for Digitaria sanguinahs (activity level): Table 3, dose 60 g a.i./ha
Procedure, shortened: as §5

Setaria viridis = assay: as above; type: in vivo; settings: Table 3, dose 60 g a.i./ha
Procedure, shortened: as §5

Stellaria media = assay: as above; type: in vivo
Procedure, shortened: as §5

Amaranthus retroflexus = assay: as above; type: in vivo
Procedure, shortened: as §5

[3] = test system: rice and Echinochloa crusgali; assay: Herbicide selection index between rice and Echinochloa crusgali; type: in vivo; settings: average dose causing 10% phytotoxicity to rice divided by average dose causing 90% control efficiency to Echinochloa crusgali

| Structure (SMILES) | Indica rice (Huanghuazhan) (plant damage level) [1] | Japonica rice (Huaidao No. 5) (plant damage level) [2] | Echinochloa crusgah (activity level) (Echinochloa crusgalli; Table 2, dose 250 g a.i./ha) | Abutilion theophrasti (activity level) (Abutilon theophrasti; Table 2, dose 250 g a.i./ha) | Digitaria sanguinalis (activity level) (Digitaria sanguinalis; Table 2, dose 250 g a.i./ha) | Stellaria media (activity level) (Stellaria media; Table 2, dose 250 g a.i./ha) | Amaranthus retroflexus (activity level) (Amaranthus retroflexus; Table 2, dose 250 g a.i./ha) | Selection index between rice and Echinochloa crusgali [3] | Echinochloa crusgah (activity level) (Echinochloa crusgalli; Table 2, dose 500 g a.i./ha) | Abutilion theophrasti (activity level) (Abutilon theophrasti; Table 2, dose 500 g a.i./ha) | Digitaria sanguinalis (activity level) (Digitaria sanguinalis; Table 2, dose 500 g a.i./ha) | Stellaria media (activity level) (Stellaria media; Table 2, dose 500 g a.i./ha) | Amaranthus retroflexus (activity level) (Amaranthus retroflexus; Table 2, dose 500 g a.i./ha) | also measured |
| --- | --- | --- | --- | --- | --- | --- | --- | --- | --- | --- | --- | --- | --- | --- |
| Cc1nnc(NC(=O)c2ccc(C(F)(F)F)c(SC3CC3)c2F)o1 [Compound 1-76] |  |  |  |  |  |  |  |  |  |  |  |  |  | Rice (safety level) (Rice): 0 (Level 0: growth control rate is less than 5%); Scirpus juncoides (activity level) (Scirpus juncoides): 5 (Level 5: growth control rate is above 85%); Monochoria vaginalis (activity level) (Monochoria vaginalis): 5 (Level 5: growth control rate is above 85%); Echinochloa crusgali (activity level) (Echinochloa crusgali): 5 (Level 5: growth control rate is above 85%) |
| Cc1nnc(NC(=O)c2ccc(C(F)(F)F)c([S+]([O-])CC(C)C)c2F)o1 (racemic) [Compound 1-20] | 0 (Level 0: growth control rate is less than 5%) | 0 (Level 0: growth control rate is less than 5%) | 5 (Level 5: growth control rate is above 85%) | 5 (Level 5: growth control rate is above 85%) | 5 (Level 5: growth control rate is above 85%) | 5 (Level 5: growth control rate is above 85%) | 5 (Level 5: growth control rate is above 85%) | >5 |  |  |  |  |  | Abutilon theophrasti (activity level) (Abutilon theophrasti): 5 (Level 5: growth control rate is above 85%); Digitaria sanguinahs (activity level) (Digitaria sanguinalis): 5 (Level 5: growth control rate is above 85%); Setaria viridis (activity level) (Setaria viridis): 5 (Level 5: growth control rate is above 85%) |
| CCCS(=O)(=O)c1c(C(F)(F)F)ccc(C(=O)Nc2nnc(C)o2)c1F [Compound 1-9] | 0 (Level 0: growth control rate is less than 5%) | 0 (Level 0: growth control rate is less than 5%) | 5 (Level 5: growth control rate is above 85%) | 5 (Level 5: growth control rate is above 85%) | 5 (Level 5: growth control rate is above 85%) | 5 (Level 5: growth control rate is above 85%) | 5 (Level 5: growth control rate is above 85%) | >5 |  |  |  |  |  | Echinochloa crusgah (activity level) (Echinochloa crusgalli; Table 2, dose 125 g a.i./ha): 5 (Level 5: growth control rate is above 85%); Abutilion theophrasti (activity level) (Abutilon theophrasti; Table 2, dose 125 g a.i./ha): 5 (Level 5: growth control rate is above 85%); Digitaria sanguinalis (activity level) (Digitaria sanguinalis; Table 2, dose 125 g a.i./ha): 5 (Level 5: growth control rate is above 85%); Stellaria media (activity level) (Stellaria media; Table 2, dose 125 g a.i./ha): 5 (Level 5: growth control rate is above 85%); Amaranthus retroflexus (activity level) (Amaranthus retroflexus; Table 2, dose 125 g a.i./ha): 5 (Level 5: growth control rate is above 85%) |
| CCCCSc1c(C(F)(F)F)ccc(C(=O)Nc2nnc(C)o2)c1F [Compound 1-13] | 0 (Level 0: growth control rate is less than 5%) | 0 (Level 0: growth control rate is less than 5%) | 5 (Level 5: growth control rate is above 85%) | 5 (Level 5: growth control rate is above 85%) | 5 (Level 5: growth control rate is above 85%) | 5 (Level 5: growth control rate is above 85%) | 5 (Level 5: growth control rate is above 85%) | >5 |  |  |  |  |  |  |
| Cc1nnc(NC(=O)c2ccc(C(F)(F)F)c([S+]([O-])C(C)C)c2F)o1 (racemic) [Compound 1-11] |  |  | 5 (Level 5: growth control rate is above 85%) | 5 (Level 5: growth control rate is above 85%) | 5 (Level 5: growth control rate is above 85%) | 5 (Level 5: growth control rate is above 85%) | 5 (Level 5: growth control rate is above 85%) |  |  |  |  |  |  | Rice (safety level) (Rice): 0 (Level 0: growth control rate is less than 5%); Scirpus juncoides (activity level) (Scirpus juncoides): 5 (Level 5: growth control rate is above 85%); Monochoria vaginalis (activity level) (Monochoria vaginalis): 5 (Level 5: growth control rate is above 85%); Echinochloa crusgali (activity level) (Echinochloa crusgali): 5 (Level 5: growth control rate is above 85%) |
| CCCSc1c(C(F)(F)F)ccc(C(=O)Nc2nnc(C)o2)c1F [Compound 1-7] | 0 (Level 0: growth control rate is less than 5%) | 0 (Level 0: growth control rate is less than 5%) | 5 (Level 5: growth control rate is above 85%) | 5 (Level 5: growth control rate is above 85%) | 5 (Level 5: growth control rate is above 85%) | 5 (Level 5: growth control rate is above 85%) | 5 (Level 5: growth control rate is above 85%) | >5 | 5 (Level 5: growth control rate is above 85%) | 5 (Level 5: growth control rate is above 85%) | 5 (Level 5: growth control rate is above 85%) | 5 (Level 5: growth control rate is above 85%) | 5 (Level 5: growth control rate is above 85%) |  |
| Cc1nnc(NC(=O)c2ccc(C(F)(F)F)c([S+]([O-])CCC(F)(F)F)c2F)o1 (racemic) [Compound 1-52] | 0 (Level 0: growth control rate is less than 5%) | 0 (Level 0: growth control rate is less than 5%) |  |  |  |  |  | >5 | 5 (Level 5: growth control rate is above 85%) | 5 (Level 5: growth control rate is above 85%) | 5 (Level 5: growth control rate is above 85%) | 5 (Level 5: growth control rate is above 85%) | 5 (Level 5: growth control rate is above 85%) | Abutilon theophrasti (activity level) (Abutilon theophrasti): 5 (Level 5: growth control rate is above 85%); Digitaria sanguinahs (activity level) (Digitaria sanguinalis): 5 (Level 5: growth control rate is above 85%); Setaria viridis (activity level) (Setaria viridis): 5 (Level 5: growth control rate is above 85%) |
| Cc1nnc(NC(=O)c2ccc(C(F)(F)F)c([S+]([O-])C3COC3)c2F)o1 (centres unmarked) [Compound 1-82] | 0 (Level 0: growth control rate is less than 5%) | 0 (Level 0: growth control rate is less than 5%) |  |  |  |  |  | >5 | 5 (Level 5: growth control rate is above 85%) | 5 (Level 5: growth control rate is above 85%) | 5 (Level 5: growth control rate is above 85%) | 5 (Level 5: growth control rate is above 85%) | 5 (Level 5: growth control rate is above 85%) |  |
